Read-outs that look alike come from different tables or passages of the source.
Target: recombinant human nicotinic acid receptor (NAR) (Homo sapiens, UniProt Q8TDS4)
Assay: Nicotinic Acid Receptor Assay: inhibition of forskolin-stimulated cAMP accumulation in CHO cells (MesoScale Discovery cAMP kit)
Type: cell-based
Details: CHO cells expressing recombinant human NAR
Protocol: The nicotinic acid receptor agonist activity of the inventive compounds was determined by following the inhibition of forskolin-stimulated cAMP accumulation in cells using the MesoScale Discovery cAMP detection kit following the manufacture's protocol. Briefly, Chinese Hamster Ovary (CHO) cells expressing recombinant human nicotinic acid receptor (NAR) were harvested enzymatically, washed 1× in phosphate buffered saline (PBS) and resuspended in PBS containing 0.5 mM IBMX at 3×10^6 cells/mL. Ten μL of cell suspension was added to each well of a 384-well plate which contained 10 μL of test compounds. Test compounds were diluted with PBS containing 6 μM of forskolin. Plates were incubated for 30 minutes at room temperature after the addition of cells. Lysis buffer containing cAMP-Tag was added to each well (10 μL/well) as per the manufacturer's protocol. Plates were then incubated from 45 minutes to overnight. Prior to reading, 10 μL of read buffer was added to each well, and the plate was read in a Sector 6000 plate imager. The signal was converted to cAMP concentration using a standard curve run on each plate.

[1] = forskolin-stimulated cAMP, read-out: NA EC50 camp
[2] = NA EC50 camp, inhibition of forskolin-stimulated cAMP accumulation
[3] = inhibition of forskolin-stimulated cAMP accumulation, read-out: NA EC50 camp
[4] = NA EC50 camp (nM), forskolin-stimulated cAMP

Chain of recombinant human nicotinic acid receptor (NAR) (Q8TDS4 whole entry): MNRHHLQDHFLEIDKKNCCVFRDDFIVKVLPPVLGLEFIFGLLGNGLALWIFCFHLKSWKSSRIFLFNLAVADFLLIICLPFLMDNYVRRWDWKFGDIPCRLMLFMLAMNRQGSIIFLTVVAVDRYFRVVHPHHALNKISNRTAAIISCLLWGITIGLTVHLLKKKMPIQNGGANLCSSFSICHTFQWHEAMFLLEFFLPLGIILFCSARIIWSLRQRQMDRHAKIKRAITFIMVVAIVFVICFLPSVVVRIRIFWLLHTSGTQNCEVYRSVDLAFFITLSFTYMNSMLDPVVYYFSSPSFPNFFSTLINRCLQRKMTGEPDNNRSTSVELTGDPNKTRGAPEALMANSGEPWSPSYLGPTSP

| Structure (SMILES) | EC50 [1] [nM] | other results |
| --- | --- | --- |
| CCCC/C=C/c1c(CC)c2c(=O)[nH]c(=O)[nH]c2oc1=O [Compound 214] | > 1000 |  |
| O=c1[nH]c(=O)c2c(CC3CCC4CC34)cc(=O)oc2[nH]1 (centres unmarked) [Compound 235] | 0.001 to 100 |  |
| CCCCc1cc(=O)oc2nc(C(F)F)[nH]c(=O)c12 [Compound 750] |  | EC50 [2]: 1890 nM |
| CCCCc1cc(=O)oc2[nH]c(=O)n(OCC)c(=O)c12 [Compound 779] |  | EC50 [3]: 2850 nM |
| O=c1[nH]c(=O)c2c(CCC(C3CC3)C3CC3)cc(=O)oc2[nH]1 [Compound 293] | 100 to 1000 |  |
| O=c1cc(CCCc2cccs2)c2c(=O)n(CC3CC3)c(=O)[nH]c2o1 [Compound 256] | > 1000 |  |
| CCCCc1cc(=O)oc2c1c(=O)[nH]c(=O)n2O [Compound 805] |  | EC50 [3]: 2060 nM |
| CCc1cc(=O)oc2nc(OCC#CCCOC)[nH]c(=O)c12 [Compound 726] |  | EC50 [3]: 219 nM |
| O=c1[nH]c(=O)c2c(CCC3CCCC3)cc(=O)oc2[nH]1 [Compound 125] |  | EC50 [3]: 1.2 nM |
| O=c1nc(OCCF)c2c(CCCC3CC3)cc(=O)oc2[nH]1 [Compound 824] |  | EC50 [3]: 91 nM |
| Cc1cc(=O)oc2[nH]c(=O)n(C3CCC3)c(=O)c12 [Compound 252] | 0.001 to 100 |  |
| CCCC#CCOc1nc2oc(=O)cc(CCC3CC3)c2c(=O)[nH]1 [Compound 721] |  | EC50 [3]: 226 nM |
| CCCCCCc1cc(=O)oc2nc(CF)[nH]c(=O)c12 [Compound 755] |  | EC50 [3]: 286 nM |
| CC(C)(C#N)CCCc1cc(=O)oc2[nH]c(=O)[nH]c(=O)c12 [Compound 288] | > 1000 |  |
| O=c1cc(CCCc2cccs2)c2c(=O)[nH]c(=O)n(CC3CC3)c2o1 [Compound 255] | > 1000 |  |
| C#CCOc1nc2oc(=O)cc(CC)c2c(=O)[nH]1 [Compound 555] |  | EC50 [4]: 100 to 1000 nM |
| CCc1cc(=O)oc2[nH]c(=O)n(C3CCC3)c(=O)c12 [Compound 35] |  | EC50 [3]: 9 nM |
| CCOC(=O)CCc1cc(=O)oc2[nH]c(=O)[nH]c(=O)c12 [Compound 222] | > 1000 |  |
| O=C(OCc1ccccc1)N1CCC(Cc2cc(=O)oc3[nH]c(=O)[nH]c(=O)c23)C1 (centres unmarked) [Compound 233] | > 1000 |  |
| CCOCCOc1nc2oc(=O)cc(CC)c2c(=O)[nH]1 [Compound 580] |  | EC50 [4]: > 1000 nM |
| CCCCc1c(-c2ccc(NC(C)=O)cc2)c(=O)oc2[nH]c(=O)[nH]c(=O)c12 [Compound 710] | > 1000 |  |
| CCc1cc(=O)oc2[nH]c(=O)n(CCF)c(=O)c12 [Compound 819] |  | EC50 [3]: 1540 nM |
| CCc1cc(=O)oc2nc(OCC#CCO)[nH]c(=O)c12 [Compound 631] |  | EC50 [4]: 100 to 1000 nM |
| COn1c(=O)[nH]c(=O)c2c(CCC3CCC3)cc(=O)oc21 [Compound 771] |  | EC50 [3]: 17 nM |

| Structure (SMILES) | EC50 [1] [nM] | other results |
| --- | --- | --- |
| COCCCc1cc(=O)oc2[nH]c(=O)[nH]c(=O)c12 [Compound 209] | 100 to 1000 |  |
| N#CC1(CCCc2cc(=O)oc3[nH]c(=O)[nH]c(=O)c23)CC1 [Compound 294] | 100 to 1000 |  |
| O=c1nc(OCC(F)F)c2c(CCC3CCC3)cc(=O)oc2[nH]1 [Compound 830] |  | EC50 [3]: 112 nM |
| CCc1cc(=O)oc2nc(OCc3ccccc3F)[nH]c(=O)c12 [Compound 74] |  | EC50 [3]: 183 nM |
| O=c1cc(CCCC2CC2)c2c(=O)n(C3CCC3)c(=O)[nH]c2o1 [Compound 784] |  | EC50 [3]: 17.9 nM |
| O=c1[nH]c(=O)c2c(CCC3CCC3)c(-c3ccc(C(F)(F)F)cc3)c(=O)oc2[nH]1 [Compound 701] | > 1000 |  |
| CC1CCC(Cc2cc(=O)oc3[nH]c(=O)[nH]c(=O)c23)CC1 (centres unmarked) [Compound 127] |  | EC50 [3]: 57.3 nM |
| O=c1cc(CCC2CCC2)c2c(=O)[nH]c(CF)nc2o1 [Compound 749] |  | EC50 [3]: 182 nM |
| O=c1cc(CCC2CC2)c2c(=O)[nH]c(OCC#CC3CC3)nc2o1 [Compound 722] |  | EC50 [3]: 111 nM |
| CCC(C)CCc1cc(=O)oc2[nH]c(=O)[nH]c(=O)c12 (centres unmarked) [Compound 247] | 0.001 to 100 |  |
| CCc1cc(=O)oc2nc(OCc3cccc(-c4cccc(C#N)c4)c3)[nH]c(=O)c12 [Compound 567] |  | EC50 [4]: 100 to 1000 nM |
| O=c1cc(CCC2CC2)c2c(=O)[nH]c(CF)nc2o1 [Compound 753] |  | EC50 [3]: 228 nM |
| CC1CC1CCc1cc(=O)oc2[nH]c(=O)[nH]c(=O)c12 (centres unmarked) [Compound 295] | 100 to 1000 |  |
| CCc1noc(CC)c1COc1nc2oc(=O)cc(CC)c2c(=O)[nH]1 [Compound 667] |  | EC50 [4]: 100 to 1000 nM |
| CCC#CCOc1nc2oc(=O)cc(CCCC(C)C)c2c(=O)[nH]1 [Compound 715] |  | EC50 [3]: 671 nM |
| CC1(CCCc2cc(=O)oc3[nH]c(=O)n(C4CCC4)c(=O)c23)CC1 [Compound 285] | 100 to 1000 |  |
| CCCCCc1cc(=O)oc2nc(C(F)F)[nH]c(=O)c12 [Compound 743] |  | EC50 [2]: 212 nM |
| Cn1c(=O)[nH]c2oc(=O)cc(CCC3CC3)c2c1=O [Compound 276] | 100 to 1000 |  |
| CCCCc1cc(=O)oc2c1c(=O)[nH]c(=O)n2OCC [Compound 778] |  | EC50 [3]: 9150 nM |
| O=c1[nH]c(=O)c2c(CCC3CCC3)c(-c3ccc(F)cc3)c(=O)oc2[nH]1 [Compound 700] | > 1000 |  |
| CCOc1nc(=O)[nH]c2oc(=O)cc(CCC3CCC3)c12 [Compound 786] |  | EC50 [3]: 5330 nM |
| CCCCc1cc(=O)oc2[nH]c(=O)n(OCc3ccccc3)c(=O)c12 [Compound 799] |  | EC50 [3]: > 10000 nM |
| CCCC(C)c1cc(=O)oc2[nH]c(=O)[nH]c(=O)c12 (centres unmarked) [Compound 218] | 100 to 1000 |  |
| O=c1[nH]c(=O)c2c(CC3CCCC(C(F)(F)F)C3)cc(=O)oc2[nH]1 (centres unmarked) [Compound 213] | 100 to 1000 |  |

Further lines, with some results ahead:

| EC50 [1] [nM] | Structure (SMILES) | other results |
| --- | --- | --- |
| 100 to 1000 | CCc1cc(=O)oc2nc(OCc3cccc(N(C)C)c3)[nH]c(=O)c12 [Compound 619] |  |
| > 1000 | CCc1cc(=O)oc2nc(OCc3ccncc3NC(=O)C(C)(C)C)[nH]c(=O)c12 [Compound 659] |  |
| 100 to 1000 | CCc1cc(=O)oc2nc(OCC#CCCOC)[nH]c(=O)c12 [Compound 664] |  |
| 100 to 1000 | CCc1cc(=O)oc2nc(OCc3cc(-c4ccccc4Cl)no3)[nH]c(=O)c12 [Compound 640] |  |
| > 1000 | CCc1cc(=O)oc2nc(OCc3conc3C)[nH]c(=O)c12 [Compound 665] |  |
| 0.001 to 100 | CCc1cc(=O)oc2nc(OCC#CC(C)O)[nH]c(=O)c12 (centres unmarked) [Compound 644] |  |
| 100 to 1000 | CCc1cc(=O)oc2nc(OC(C)COC)[nH]c(=O)c12 (centres unmarked) [Compound 607] |  |
| > 1000 | CCc1cc(=O)oc2nc(OCc3cccc(-n4cccc4)c3)[nH]c(=O)c12 [Compound 612] |  |
| 0.001 to 100 | CCc1cc(=O)oc2nc(OCC#CC(O)CC)[nH]c(=O)c12 (centres unmarked) [Compound 671] |  |
| > 1000 | CCc1cc(=O)oc2nc(OCCN3CCOC3=O)[nH]c(=O)c12 [Compound 620] |  |
| > 1000 | CCCCc1cc(=O)oc2nc(OCc3ccccn3)[nH]c(=O)c12 [Compound 682] |  |
| 100 to 1000 | CCc1cc(=O)oc2nc(OCC[Si](C)(C)C)[nH]c(=O)c12 [Compound 637] |  |
| 100 to 1000 | CCc1cc(=O)oc2nc(OC[C@H]3CN([C@H](C)c4ccccc4)C(=O)O3)[nH]c(=O)c12 [Compound 613] |  |
| 0.001 to 100 | CCOC(=O)NOc1nc2oc(=O)cc(CCC3CCC3)c2c(=O)[nH]1 [Compound 691] | EC50 [3]: 47.5 nM |
| 100 to 1000 | CCc1cc(=O)oc2nc(OCCCSC)[nH]c(=O)c12 [Compound 642] |  |
| 100 to 1000 | CCc1cc(=O)oc2nc(OCc3ccccc3-c3ccc(F)c(C#N)c3)[nH]c(=O)c12 [Compound 584] |  |
| > 1000 | CN(C)CCOc1nc2oc(=O)cc(Cc3cccc(F)c3)c2c(=O)[nH]1 [Compound 683] |  |

| EC50 [1] [nM] | Structure (SMILES) | other results |
| --- | --- | --- |
| 100 to 1000 | CCc1cc(=O)oc2nc(OCc3nccc4ccccc34)[nH]c(=O)c12 [Compound 528] |  |
| 100 to 1000 | CCc1cc(=O)oc2nc(OCC#CCOC)[nH]c(=O)c12 [Compound 636] |  |
| 100 to 1000 | CCc1cc(=O)oc2nc(OCCOc3cc(C(F)(F)F)ccn3)[nH]c(=O)c12 [Compound 602] |  |
| 100 to 1000 | CCc1cc(=O)oc2nc(OCc3ccncc3Cl)[nH]c(=O)c12 [Compound 629] |  |
| > 1000 | CCOC(=O)NOc1nc2oc(=O)cc(CCC(C)C)c2c(=O)[nH]1 [Compound 694] |  |
| 100 to 1000 | CCc1cc(=O)oc2nc(OCc3c(C)noc3-c3ccccc3)[nH]c(=O)c12 [Compound 531] |  |
| > 1000 | CCc1cc(=O)oc2nc(OCc3ccc(-n4cncn4)cc3)[nH]c(=O)c12 [Compound 628] |  |
| 100 to 1000 | CCc1cc(=O)oc2nc(OCc3ccccc3-c3cccc(C(=O)NC)c3)[nH]c(=O)c12 [Compound 551] |  |
| 100 to 1000 | CCc1noc(C)c1COc1nc2oc(=O)cc(Cc3cccc(F)c3)c2c(=O)[nH]1 [Compound 685] |  |
| > 1000 | CCc1cc(=O)oc2nc(OCc3ccc(C(F)(F)F)cc3C(F)(F)F)[nH]c(=O)c12 [Compound 514] |  |
| 0.001 to 100 | CCCCc1cc(=O)oc2nc(OCC#CCOC)[nH]c(=O)c12 [Compound 670] |  |
| 100 to 1000 | CCc1cc(=O)oc2nc(OCc3cccc(-c4cccnc4)c3)[nH]c(=O)c12 [Compound 563] |  |
| 100 to 1000 | CCc1cc(=O)oc2nc(OCc3cc(Cl)cc(Cl)c3)[nH]c(=O)c12 [Compound 503] |  |
| > 1000 | CCc1cc(=O)oc2nc(OCc3ccccc3-c3cccc(C(=O)NC4CC4)c3)[nH]c(=O)c12 [Compound 553] |  |
| > 1000 | CCc1cc(=O)oc2nc(OCCN3CCCCC3)[nH]c(=O)c12 [Compound 578] |  |
| 0.001 to 100 | CCc1noc(C)c1COc1nc2oc(=O)cc(CC)c2c(=O)[nH]1 [Compound 666] |  |
| 0.001 to 100 | CCc1cc(=O)oc2nc(OCC#Cc3ccccc3Cl)[nH]c(=O)c12 [Compound 623] |  |
